Experimental data published in patent US20250163104A1, “MACROCYCLIC IMMUNOMODULATORS” (priority 2021, published 2025).
Where a SMILES comes first, the peptide text is derived from it. Bridges are numbered along the chain shown (N, C = ends). [ ]: non-standard residue; d: D form. The star is where a group is joined. ξ: configuration not given here. Phe(4-COOH) = N[C@@H](Cc1ccc(C(=O)O)cc1)C(=O)O; Bip = N[C@@H](Cc1ccc(-c2ccccc2)cc1)C(=O)O; Phe(3-OMe) = COc1cccc(C[C@H](N)C(=O)O)c1; Orn(N3) = [N-]=[N+]=NCCC[C@H](N)C(=O)O; Phe(3-Me) = Cc1cccc(C[C@H](N)C(=O)O)c1; Dap(N3) = [N-]=[N+]=NC[C@H](N)C(=O)O; ξLys(N3) = [N-]=[N+]=NCCCCC(N)C(=O)O; Aha = [N-]=[N+]=NCC[C@H](N)C(=O)O; 4Pal = N[C@@H](Cc1ccncc1)C(=O)O; Cha = N[C@@H](CC1CCCCC1)C(=O)O; Carboxymethyl = O=C(O)C*; Orn = NCCC[C@H](N)C(=O)O; Pra = C#CC[C@H](N)C(=O)O; Dab = NCC[C@H](N)C(=O)O; Dap = NC[C@H](N)C(=O)O; Propargyl = C#CC*

Target: T1, human PD-1 / PD-L1-Ig binding on Jurkat cell line over-expressing human PD-1 (Jurkat-PD-1) (Homo sapiens, UniProt Q15116)
T1 construct: expressed in transfected cells; host or cells: Jurkat
T1 sequence (Q15116 25-288): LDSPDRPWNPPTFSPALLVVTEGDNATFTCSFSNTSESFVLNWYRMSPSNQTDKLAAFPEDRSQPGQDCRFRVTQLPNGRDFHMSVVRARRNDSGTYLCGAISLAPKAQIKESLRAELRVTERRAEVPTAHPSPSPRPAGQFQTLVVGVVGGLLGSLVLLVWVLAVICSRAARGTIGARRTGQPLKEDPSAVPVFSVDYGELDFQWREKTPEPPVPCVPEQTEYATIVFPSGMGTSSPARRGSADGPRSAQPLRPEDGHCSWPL
Experiment: Jurkat-PD-1 Cell Binding High-Content Screening Assay (CBA)
Format: cell-based
Conditions: Jurkat-PD-1 cells, PE-labeled PD-L1-Ig 20 nM final; read-out: Jurkat HPD1_PDL1 IC50
Procedure, shortened: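 Jurkat cells over-expressing human PD-1, in DMEM/10% FCS, pre-incubated with compound 2 h at 37° C. PE-labeled human PD-L1-Ig (20 nM final) added for 1 h; cells fixed in paraformaldehyde with Hoechst 33342 nuclear stain, washed, and bound fluorescence quantified by high-content imaging.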

| Compound | IC50 [nM] |
| --- | --- |
| C#CCOc1ccc(C[C@@H]2NC(=O)[C@H](CN)NC(=O)CSC[C@@H](C(=O)N[C@@H](CCCN=[N+]=[N-])C(N)=O)NC(=O)[C@H]([C@@H](C)O)NC(=O)[C@H](C(C)C)NC(=O)[C@H](CC3CCCCC3)NC(=O)[C@H](CCN)NC(=O)[C@@H](CC(C)C)NC(=O)[C@H](CCCN)NC(=O)[C@H](CCC(=O)O)NC(=O)[C@H](Cc3ccc(-c4ccccc4)cc3)NC(=O)[C@H](C(C)C)NC(=O)[C@H](Cc3c[nH]c4ccccc34)NC(=O)[C@H](CC(=O)O)NC2=O)cc1 [Compound 1537] ({CH2CO}-[Dap]Y(Propargyl)DWV[Bip]E[Orn][dL][Dab][Cha]VTC[Orn(N3)]-NH2; thioether N-14) | 101 |
| C#CCOc1ccc(C[C@@H]2NC(=O)[C@H](CN)NC(=O)CSC[C@@H](C(=O)NC(CCCCN=[N+]=[N-])C(N)=O)NC(=O)[C@H]([C@@H](C)O)NC(=O)[C@H](C(C)C)NC(=O)[C@H](CC3CCCCC3)NC(=O)[C@H](CCN)NC(=O)[C@@H](CC(C)C)NC(=O)[C@H](CCCN)NC(=O)[C@H](CCC(=O)O)NC(=O)[C@H](Cc3ccc(-c4ccccc4)cc3)NC(=O)[C@H](C(C)C)NC(=O)[C@H](Cc3c[nH]c4ccccc34)NC(=O)[C@H](CC(=O)O)NC2=O)cc1 (stereo partly drawn) [Compound 1538] ({CH2CO}-[Dap]Y(Propargyl)DWV[Bip]E[Orn][dL][Dab][Cha]VTC[ξLys(N3)]-NH2; thioether N-14) | 135 |
| C#CC[C@H](NC(=O)[C@@H]1CSCC(=O)N[C@@H](CN)C(=O)N[C@@H](CN=[N+]=[N-])C(=O)N[C@@H](CC(=O)O)C(=O)N[C@@H](Cc2c[nH]c3ccccc23)C(=O)N[C@@H](C(C)C)C(=O)N[C@@H](Cc2ccc(-c3ccccc3)cc2)C(=O)N[C@@H](CCC(=O)O)C(=O)N[C@@H](CCCN)C(=O)N[C@H](CC(C)C)C(=O)N[C@@H](CCN)C(=O)N[C@@H](CC2CCCCC2)C(=O)N[C@@H](C(C)C)C(=O)N[C@@H]([C@@H](C)O)C(=O)N1)C(N)=O [Compound 1539] ({CH2CO}-[Dap][Dap(N3)]DWV[Bip]E[Orn][dL][Dab][Cha]VTC[Pra]-NH2; thioether N-14) | 85.7 |
| C#CC[C@H](NC(=O)[C@@H]1CSCC(=O)N[C@@H](CN)C(=O)N[C@@H](CCN=[N+]=[N-])C(=O)N[C@@H](CC(=O)O)C(=O)N[C@@H](Cc2c[nH]c3ccccc23)C(=O)N[C@@H](C(C)C)C(=O)N[C@@H](Cc2ccc(-c3ccccc3)cc2)C(=O)N[C@@H](CCC(=O)O)C(=O)N[C@@H](CCCN)C(=O)N[C@H](CC(C)C)C(=O)N[C@@H](CCN)C(=O)N[C@@H](CC2CCCCC2)C(=O)N[C@@H](C(C)C)C(=O)N[C@@H]([C@@H](C)O)C(=O)N1)C(N)=O [Compound 1540] ({CH2CO}-[Dap][Aha]DWV[Bip]E[Orn][dL][Dab][Cha]VTC[Pra]-NH2; thioether N-14) | 87.4 |
| COc1cccc(C[C@@H]2NC(=O)[C@H](CC(=O)O)NC(=O)[C@H](Cc3ccc(C(=O)O)cc3)NC(=O)[C@H](Cc3ccc(OCC(=O)O)cc3)NC(=O)CSC[C@@H](C(=O)N[C@@H](C)C(N)=O)NC(=O)[C@H]([C@@H](C)O)NC(=O)[C@H](C(C)C)NC(=O)[C@H](CC3CCCCC3)NC(=O)[C@H](CCN)NC(=O)[C@@H](CC(C)C)NC(=O)[C@H](CCCN)NC(=O)[C@H](CCC(=O)O)NC(=O)[C@H](Cc3ccc(-c4ccccc4)cc3)NC(=O)[C@H](C(C)C)NC2=O)c1 [Compound 1541] | 16.6 |
| COc1cccc(C[C@@H]2NC(=O)[C@H](CC(=O)O)NC(=O)[C@H](Cc3ccc(OCC(=O)O)cc3)NC(=O)[C@H](Cc3ccccc3)NC(=O)CSC[C@@H](C(=O)N[C@@H](C)C(N)=O)NC(=O)[C@H]([C@@H](C)O)NC(=O)[C@H](C(C)C)NC(=O)[C@H](CC3CCCCC3)NC(=O)[C@H](CCN)NC(=O)[C@@H](CC(C)C)NC(=O)[C@H](CCCN)NC(=O)[C@H](CCC(=O)O)NC(=O)[C@H](Cc3ccc(-c4ccccc4)cc3)NC(=O)[C@H](C(C)C)NC2=O)c1 [Compound 1542] ({CH2CO}-FY(Carboxymethyl)D[Phe(3-OMe)]V[Bip]E[Orn][dL][Dab][Cha]VTCA-NH2; thioether N-14) | 18.6 |
| COc1cccc(C[C@@H]2NC(=O)[C@H](CC(=O)O)NC(=O)[C@H](Cc3ccc(O)cc3)NC(=O)[C@H](Cc3ccncc3)NC(=O)CSC[C@@H](C(=O)N[C@@H](C)C(N)=O)NC(=O)[C@H]([C@@H](C)O)NC(=O)[C@H](C(C)C)NC(=O)[C@H](CC3CCCCC3)NC(=O)[C@H](CCN)NC(=O)[C@@H](CC(C)C)NC(=O)[C@H](CCCN)NC(=O)[C@H](CCC(=O)O)NC(=O)[C@H](Cc3ccc(-c4ccccc4)cc3)NC(=O)[C@H](C(C)C)NC2=O)c1 [Compound 1543] | 27.7 |
| COc1cccc(C[C@@H]2NC(=O)[C@H](CC(=O)O)NC(=O)[C@H](Cc3ccc(OCC(=O)O)cc3)NC(=O)[C@H](Cc3ccncc3)NC(=O)CSC[C@@H](C(=O)N[C@@H](C)C(N)=O)NC(=O)[C@H]([C@@H](C)O)NC(=O)[C@H](C(C)C)NC(=O)[C@H](CC3CCCCC3)NC(=O)[C@H](CCN)NC(=O)[C@@H](CC(C)C)NC(=O)[C@H](CCCN)NC(=O)[C@H](CCC(=O)O)NC(=O)[C@H](Cc3ccc(-c4ccccc4)cc3)NC(=O)[C@H](C(C)C)NC2=O)c1 [Compound 1544] | 10.5 |
| COc1cccc(C[C@@H]2NC(=O)[C@H](CC(=O)O)NC(=O)[C@H](Cc3ccc(OCC(=O)O)cc3)NC(=O)[C@H](Cc3cccnc3)NC(=O)CSC[C@@H](C(=O)N[C@@H](C)C(N)=O)NC(=O)[C@H]([C@@H](C)O)NC(=O)[C@H](C(C)C)NC(=O)[C@H](CC3CCCCC3)NC(=O)[C@H](CCN)NC(=O)[C@@H](CC(C)C)NC(=O)[C@H](CCCN)NC(=O)[C@H](CCC(=O)O)NC(=O)[C@H](Cc3ccc(-c4ccccc4)cc3)NC(=O)[C@H](C(C)C)NC2=O)c1 [Compound 1545] | 17.8 |
| COc1cccc(C[C@@H]2NC(=O)[C@H](CC(=O)O)NC(=O)[C@H](Cc3ccncc3)NC(=O)[C@H](CN)NC(=O)CSC[C@@H](C(=O)N[C@@H](C)C(N)=O)NC(=O)[C@H]([C@@H](C)O)NC(=O)[C@H](C(C)C)NC(=O)[C@H](CC3CCCCC3)NC(=O)[C@H](CCN)NC(=O)[C@@H](CC(C)C)NC(=O)[C@H](CCCN)NC(=O)[C@H](CCC(=O)O)NC(=O)[C@H](Cc3ccc(-c4ccccc4)cc3)NC(=O)[C@H](C(C)C)NC2=O)c1 [Compound 1546] ({CH2CO}-[Dap][4Pal]D[Phe(3-OMe)]V[Bip]E[Orn][dL][Dab][Cha]VTCA-NH2; thioether N-14) | 9 |
| CC[C@H](C)[C@@H]1NC(=O)[C@H](Cc2ccc(-c3ccccc3)cc2)NC(=O)[C@H](C(C)C)NC(=O)[C@H](Cc2cccc(C)c2)NC(=O)[C@H](CC(=O)O)NC(=O)[C@H](Cc2ccc(C(=O)O)cc2)NC(=O)[C@H](Cc2ccncc2)NC(=O)CSC[C@@H](C(N)=O)NC(=O)[C@H]([C@@H](C)O)NC(=O)[C@H](C(C)C)NC(=O)[C@H](CC2CCCCC2)NC(=O)[C@H](CCN)NC(=O)[C@@H](CC(C)C)NC(=O)[C@H](CCCN)NC1=O [Compound 1547] ({CH2CO}-[4Pal][Phe(4-COOH)]D[Phe(3-Me)]V[Bip]I[Orn][dL][Dab][Cha]VTC-NH2; thioether N-14) | 15.9 |
